Results published in US12139458B2, “(2,5-dioxopyrrolidin-1-yl)(phenyl)-acetamide derivatives and their use in the treatment of neurological diseases” (UNIWERSYTET JAGIELLONSKI, priority 2019, dated 2024).

Columns and labels:
[1] = tested on: male white Swiss mice (CD-1); experiment: Oxaliplatin-induced neuropathic pain, von Frey test; format: in vivo; settings: for pain threshold, von Frey test: 7 days after OXPT, after OXPT 1.89±0.04 g; for pain threshold as % of the initial value, von Frey test: initial value 3.36±0.10 g
Experimental: The tests were carried out using male white Swiss mice (CD-1) weighing 18-25 g. All procedures were carried out in accordance with Polish and international guidelines on ethics of animal testing, after obtaining appropriate institutional approval. The study group consisted of 8-10 animals. The tested and reference substances were administered intraperitoneally 30 minutes before given test as suspension in 1% aqueous solution of Tween. All tests/models were carried out based on the procedures described in the specialist literature: the formalin test (Beirith, A.; Santos, A. R.; Calixto, J. B.; Rodrigues, A. L.; Creczynski-Pasa, T. B. Eur. J. Pharmacol. 1998, 345, 233-245), the model of capsaicin-induced pain (Mogilski, S.; Kubacka, M.; Redzicka, A.; Kazek, G.; Dudek, M.; Malinka, W.; Filipek, B. Pharmacol. Biochem. Behav. 2015, 133, 99-110), the model of oxaliplatin-induced neuropathic pain—von Frey test (Sałat, K.; Cios, A.; Wyska, E.; Satat, R.; Mogilski, S.; Filipek, B.; Wigȩkowski, K.; Malawska, B. Pharmacol. Biochem. Behav. 2014, 122, 173-181).
Oxaliplatin (OXPT) was dissolved in a 5% glucose solution, followed by intraperitoneal administration to mice. A single dose of 10 mg/kg was used. Tactile and thermal (sensation of low temperature) allodynia associated with oxaliplatin-induced neuropathy are characterized by two phases. The early phase is acute and develops soon after administration of the OXPT, while the symptoms of the later (chronic) phase (associated with neurons damage), develops after a few days. Behavioral tests in mice with OXPT-induced neuropathy were carried out 7 days after its administration, i.e. in the late phase of neuropathy.
The influence of compounds tested on tactile allodynia was determined in the von Frey test. The animals were placed individually in cages with a reticulated bottom, 60 minutes before the beginning of the experiment, in order to adapt to the new environment. An electronic Von Frey apparatus (Electronic Von Frey, Bioseb, France) was used to assess the pain threshold for mechanical stimuli. The von Frey's fiber was applied to the underside of the right mouse paw with increasing pressure. […] The measurement was performed 3 times for each mouse, with at least 30 seconds between the measurements, then the results obtained were averaged. The entire study was performed 3 times: before OXPT administration to determine the baseline pain threshold; 7 days after administration of OXPT, and before administration of test compounds, to assess developing neuropathy by setting a new pain threshold; 30 minutes after administration of the compounds to determine their influence developed neuropathy.
Compound 6 was administered at doses of 10, 20 and 30 mg/kg.

[2] = tested on: male Swiss albino mice (CD-1); experiment: Maximal electroshock seizure test (MES); format: in vivo
Outline: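 Male CD-1 mice (18–26 g) received compound i.p. in 1% aqueous Tween 30 min before a 0.2 s, 500 V, 25 mA auricular electroshock.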

CYP3A4 = molecular target: T1, CYP3A4 (Homo sapiens, UniProt P08684); experiment: CYP3A4 P450-Glo luminescence test; format: in vitro ADME
T1 construct: purchased Promega (Madison, WI, USA)
Experimental: Effect of compound 6 on cytochrome P-450 3A4 and 2D6 activity. The research was conducted using commercial luminescence tests CYP3A4 P450-Glo™ and CYP2D6 P450-Glo™ from Promega (Madison, WI, USA) based on the methodology described in the literature (Socała, K.; Mogilski, S.; Pieróg, M.; Nieoczym, D.; Abram, M.; Szulczyk, B.; Lubelska, A.; Latacz, G.; Doboszewska, U.; Wlaź, P.; Kamiński, K. ACS Chem. Neurosci. 2018, doi: 10.1021/acschemneuro.8b00476; Latacz, G.; Lubelska, A.; Jastrzȩbska-Wiȩek, M.; Partyka, A.; Sobato, A.; Olejarz, A.; Kucwaj-Brysz, K.; Satata, G.; Bojarski, A. J.; Wesołowska, A.; Kieć-Kononowicz, K.; Handzlik, J. Chem. Biol. Drug. Des. 2017, 90, 1295-1306). The CYP isoforms selected for study are responsible for the metabolism of approximately 40-50% of the drugs available on the market, and their stimulation or inhibition determines the majority of metabolic drug interactions. […] In summary, the results obtained indicate a low probability of potential metabolic interactions caused by 6.

T1 sequence (P08684 whole entry): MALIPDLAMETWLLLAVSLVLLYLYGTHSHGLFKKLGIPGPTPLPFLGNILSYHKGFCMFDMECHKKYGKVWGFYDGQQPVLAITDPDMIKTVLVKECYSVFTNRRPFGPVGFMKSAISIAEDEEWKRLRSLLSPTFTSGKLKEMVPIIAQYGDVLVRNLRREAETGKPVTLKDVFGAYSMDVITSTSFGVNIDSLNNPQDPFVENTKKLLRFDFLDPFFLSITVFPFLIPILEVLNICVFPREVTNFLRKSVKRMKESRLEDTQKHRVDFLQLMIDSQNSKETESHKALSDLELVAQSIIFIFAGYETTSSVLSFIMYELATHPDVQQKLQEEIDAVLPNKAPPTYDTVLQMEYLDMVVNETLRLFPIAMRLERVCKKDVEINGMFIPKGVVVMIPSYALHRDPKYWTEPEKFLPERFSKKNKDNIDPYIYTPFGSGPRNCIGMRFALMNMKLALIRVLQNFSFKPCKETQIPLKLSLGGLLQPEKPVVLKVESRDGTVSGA

O=C(C(c1ccccc1)N1C(=O)CCC1=O)N1CCN(c2cccc(C(F)(F)F)c2)CC1 (racemic) [Compound 6, 1-(2-Oxo-1-phenyl-2-(4-(3-(trifluoromethyl)phenyl)piperazin-1-yl)ethyl)pyrrolidine-2,5-dione]
pain threshold, von Frey test ([1]; 10 mg/kg i.p.): 2.87 ± 0.12 g
pain threshold as % of the initial value, von Frey test ([1]; 10 mg/kg i.p.): 85.41%
pain threshold, von Frey test ([1]; 20 mg/kg i.p.): 3.83 ± 0.13 g
pain threshold as % of the initial value, von Frey test ([1]; 20 mg/kg i.p.): 113.98%
pain threshold, von Frey test ([1]; 30 mg/kg i.p.): 4.17 ± 0.17 g
pain threshold as % of the initial value, von Frey test ([1]; 30 mg/kg i.p.): 124.10%
ED50 ([2]; Mus musculus, ip, 0.5 h, mice): 23.7 mg/kg
mice protected in the MES test ([2]; screening, 100 mg/kg, time point 0.5 h): 100%
effect on CYP3A4 activity (CYP3A4): no effect
